# Legend:
# [1] = test system: HEK human embryonic kidney cells; experiment: MTT cytotoxicity assay, HEK; assay type: cell-based; conditions: 48 h
# Protocol: (§1) The cell lines employed in the investigation were purchased from the National Centre for Cell Sciences (NCCS), Pune, India. The cell lines were cultured in DMEM fortified with 10% FBS, L-glutamine, sodium bicarbonate, and solution of antibiotics (streptomycin 100 μg ml^−1 + penicillin-100 U ml^−1). The culture of cell lines was stored under 5% CO2 incubation at 37 °C.
# (§2) The compounds showing maximum activity (antimicrobial and antioxidant potential) were screened for cytotoxicity against A549 and HEK cell lines using MTT assay. Initially, 96-well microculture plate was seeded with 1 × 10^4 cells in 100 µl/well DMEM/MEM, supplemented with 10% FBS followed by incubation at a temperature of 37 °C for a period of 24 h under 5% CO2 atmosphere. After that, the test compounds and camptothecin were added to the cells to achieve a concentration of 10, 25, 50 and 100 µg. MTT reagent (10 µl) of concentration of 5 mg ml^−1 added to all the wells after the duration of 48 h. The plate was incubated further for 4 h followed by careful removal of supernatant from each well. To dissolve the formazan crystals, 100 µl of DMSO was added, and the ELISA reader was used to check the absorbance at 570 nm wavelength. In order to calculate the IC50 concentration, the following equation, i.e. A = Bx + C, was used. In this case, A = 50, while the values B and C values were obtained from the survival curve plot. This study was carried out in duplicate.
# B. cereus = experiment: Antimicrobial serial tube dilution, MIC and MBC; assay type: cell-based, Bacillus cereus MTCC 1305; conditions: Bacillus cereus; for MIC: 24 h, read-out: B. cereus MIC; for MBC: read-out: B. cereus MBC
# Protocol: (§3) The synthesized diazenyl chalcones (C18 to C27) and controls (dyes A and E, and chalcone) were assessed for their antimicrobial activity by estimation of MIC and MBC/MFC values. […] The stock solutions of the test compounds and standard drugs having a concentration of 1000 µg ml^−1 were prepared by dissolving the used compounds in DMSO. The nutrient broth/Sabouraud dextrose broth was used for the serial dilution of the test compounds and referenced drugs for bacterial and fungal cultures, respectively. […] The size of the final inoculum in each test tube was taken as 5 × 10^5 CFU ml^−1. The incubation of the test and standard compounds of varying concentrations was done for 24 h at 37 ± 2 °C (bacterial culture) and for 48 h at 37 ± 2 °C (C. albicans) and for 7 d at 25 ± 2 °C (A. fumigatus). The diazenyl chalcones (C18–C27), were further evaluated for their bactericidal/fungicidal activity by estimation of MBC/MFC values. […] For proper mixing of culture media, the plates were shaken gently followed by incubation at the predefined temperature and time as stated earlier, followed by the visual inspection of the plates for signs of microbial growth.
# [2] = DPPH scavenging antioxidant assay
# Protocol: The derivatives (C18–C27) were assessed for their antioxidant potential in the presence of the stable free radical DPPH using ascorbic acid as the standard compound [36, 37]. […] The total volume of 200 µl was used in each well for each concentration of the test and standard drug containing 0.004 µg DPPH. The assay was performed in triplicate at all concentrations of each sample and standard compound. DPPH solutions in methanol at the same concentration without test drugs were used as the control. Each concentration of the sample and standard has a different blank. To minimize evaporation, the plate was covered with the lid and wrapped in aluminium foil and kept in the dark place in order to protect the DPPH radical from degradation by light and left for 30 min. After 30 min of incubation, the plate was kept in ELISA reader to measure the absorbance values at 517 nm. The experiment was performed in triplicate. The antioxidant activity of each sample was then calculated as per cent inhibition of DPPH according to the following equation: %decolourationofDPPH=ControlAbs-SampleAbs×100/ControlAbs
# A. fumigatus = experiment: Antimicrobial serial tube dilution, MIC and MFC; assay type: cell-based, Aspergillus fumigatus MTCC 2584; conditions: Aspergillus fumigatus; for MIC: 168 h, read-out: A. fumigatus MIC; for MFC: read-out: A. fumigatus MFC
# Protocol: as §3
# [3] = test system: A549 human lung cancer cell line; experiment: MTT cytotoxicity assay, A549; assay type: cell-based; conditions: for IC50: Homo sapiens, A549, MTT, 48 h
# Protocol: as §1, §2
# B. subtilis = experiment: Antimicrobial serial tube dilution, MIC and MBC; assay type: cell-based, Bacillus subtilis MTCC 2063; conditions: Bacillus subtilis; for MIC: 24 h, read-out: B. subtilis MIC; for MBC: read-out: B. subtilis MBC
# Protocol: as §3
# S. aureus = experiment: Antimicrobial serial tube dilution, MIC and MBC; assay type: cell-based, Staphylococcus aureus MTCC 2901; conditions: Staphylococcus aureus; for MIC: 24 h, read-out: S. aureus MIC; for MBC: read-out: S. aureus MBC
# Protocol: as §3
# E. coli = experiment: Antimicrobial serial tube dilution, MIC and MBC; assay type: cell-based, Escherichia coli MTCC 1652; conditions: for MIC / MBC: Escherichia coli; for MIC: 24 h, read-out: E. coli MIC, 24 h at 37 ± 2 °C; for MBC: read-out: E. coli MBC
# Protocol: as §3
# S. typhi = experiment: Antimicrobial serial tube dilution, MIC and MBC; assay type: cell-based, Salmonella typhi MTCC 3216; conditions: Salmonella enterica, TYPHI; for MIC: 24 h, read-out: S. typhi MIC; for MBC: read-out: S. typhi MBC
# Protocol: as §3
# C. albicans = experiment: Antimicrobial serial tube dilution, MIC and MFC; assay type: cell-based, Candida albicans MTCC 227; conditions: Candida albicans; for MIC: 48 h, read-out: C. albicans MIC; for MFC: read-out: C. albicans MFC
# Protocol: as §3
Structure (SMILES),MIC (B. cereus),MBC (B. cereus),IC50 DPPH [2],% inhibition of DPPH ([2]; 1.56 µg ml^−1),% inhibition of DPPH ([2]; 3.12 µg ml^−1),% inhibition of DPPH ([2]; 6.25 µg ml^−1),% inhibition of DPPH ([2]; 12.5 µg ml^−1),% inhibition of DPPH ([2]; 25 µg ml^−1),% inhibition of DPPH ([2]; 50 µg ml^−1),% inhibition of DPPH ([2]; 100 µg ml^−1),MIC (A. fumigatus),MFC (A. fumigatus),MIC (B. subtilis),MBC (B. subtilis),MIC (S. aureus),MBC (S. aureus),MIC (E. coli),MBC (E. coli),MIC (S. typhi),MBC (S. typhi),other results
"O=C(/C=C\c1ccc(Cl)cc1Cl)c1cccc(N=Nc2cccc(Cl)c2Cl)c1O [Compound C-19, (2Z)-3-(2,4-Dichlorophenyl)-1-(3-((2,3-dichlorophenyl)diazenyl)-2-hydroxyphenyl)prop-2-en-1-one]",500 µg/mL,500 µg/mL,> 100 µg/mL,6.64%,7.71%,9.39%,10.87%,12.99%,15.22%,24.49%,125 µg/mL,250 µg/mL,15.6 µg/mL,62.5 µg/mL,125 µg/mL,125 µg/mL,500 µg/mL,500 µg/mL,125 µg/mL,125 µg/mL,IC50 [1]: 221 ± 3.23 µg/mL; IC50 [3]: 140.2 ± 1.11 µg/mL; MIC (C. albicans): 125 µg/mL; MFC (C. albicans): 125 µg/mL; melting point: 112 to 114 °C
"O=Cc1ccc(/C=C\C(=O)c2ccc(N=Nc3c(O)cccc3O)cc2)cc1 [Compound C-23, 4-((1Z)-3-(4-((2,6-Dihydroxyphenyl)diazenyl)phenyl)-3-oxoprop-1-en-1-yl)benzaldehyde]",62.5 µg/mL,62.5 µg/mL,17.82 µg/mL,19.03%,25.53%,35.86%,50.45%,70.53%,83.17%,95.68%,62.5 µg/mL,125 µg/mL,62.5 µg/mL,62.5 µg/mL,125 µg/mL,125 µg/mL,7.81 to 15.6 µg/mL,15.6 µg/mL,31.2 µg/mL,62.5 µg/mL,IC50 [1]: 190.1 ± 1.56 µg/mL; log IC50 DPPH ([2]; Fig. 1): 1.251; IC50 [3]: 171 ± 2.46 µg/mL; E. coli MIC (E. coli; 24 h at 37 ± 2 °C): 15.62 µg/mL; MIC (C. albicans): 125 µg/mL; MFC (C. albicans): 125 µg/mL; melting point: 182 to 184 °C
"O=Cc1ccc(/C=C\C(=O)c2cccc(N=Nc3cccc(Cl)c3Cl)c2O)cc1 [Compound C-25, 4-((1Z)-3-(3-((2,3-Dichlorophenyl)diazenyl)-2-hydroxyphenyl)-3-oxoprop-1-en-1-yl)benzaldehyde]",125 µg/mL,125 µg/mL,> 100 µg/mL,9.71%,10.38%,11.36%,13.56%,14.91%,15.67%,20.34%,62.5 µg/mL,62.5 µg/mL,15.6 µg/mL,62.5 µg/mL,62.5 µg/mL,62.5 µg/mL,62.5 µg/mL,125 µg/mL,125 µg/mL,125 µg/mL,"IC50 [1]: 270 ± 2.82 µg/mL; Morphological changes in A549 cell line ([3]; C-25 at 50 and 25 µg ml^−1, Fig. 2): reduced the number and clumping of A549 cells to a significant extent; IC50 [3]: 18 ± 1.34 µg/mL; Cytotoxicity against A549 cell line in words ([3]; compared with camptothecin): comparable cytotoxicity to camptothecin; MIC (C. albicans): 31.2 µg/mL; MFC (C. albicans): 62.5 µg/mL; melting point: 96 to 98 °C"
"CC(=O)c1ccc(N=Nc2c(O)cccc2O)cc1 [Dye E, 1-(4-((2,6-Dihydroxyphenyl)diazenyl)phenyl)ethanone]",62.5 µg/mL,62.5 µg/mL,69.40 µg/mL,7.89%,12.68%,19.80%,26.18%,34.89%,47.56%,56.78%,125 µg/mL,125 µg/mL,62.5 µg/mL,125 µg/mL,31.2 µg/mL,62.5 µg/mL,31.2 µg/mL,31.2 µg/mL,125 µg/mL,125 µg/mL,MIC (C. albicans): 125 µg/mL; MFC (C. albicans): 125 µg/mL; melting point: 240 to 242 °C
